Assay results from patent US7790887B2, “Macrolide compound in solid form, process for preparation thereof, and pharmaceutical composition containing the same” (Eisai R&D Management Co., Ltd., priority 2007, dated 2010).

Experiment: Comparison of solubility: time required for complete dissolution of solid forms in pH 5.0 buffer
Format: physicochemical
Conditions: 25 mM potassium acetate buffer solution (pH 5.0), room temperature, concentration of 5 mg/mL, shaken at about 100 rpm
Experimental: (Comparison of Solubility)
Next, the length of time required to dissolve about […] of the solid forms of formula (I) compound at room temperature in a pH 5.0 acetic acid buffer solution were measured.
After adding, at room temperature, a 25 mM potassium acetate buffer solution (pH 5.0) to, respectively, 10 mg of the white crystals prepared in Example 7, 10 mg of the amorphous powder prepared in Example 10, and 5 mg of the amorphous mass prepared in Example 11 in order to make a concentration of 5 mg/mL in each sample, the length of time required for complete dissolution under shaken at about 100 rpm was measured.

Question: For `CCC(O)C(C)C1OC1CC(C)(O)/C=C/C=C(\C)C1OC(=O)CC(O)CCC(C)(O)C(OC(=O)N2CCN(C3CCCCCC3)CC2)/C=C/C1C` (stereo not drawn) [Amorphous mass, (8E,12E,14E)-7-{(4-cycloheptylpiperazin-1-yl)carbonyl}oxy-3,6,16,21-tetrahydroxy-6,10,12,16,20-pentamethyl-18,19-epoxytricosa-8,12,14-trien-11-olide], which “time required for dissolution” value is on record?
Answer: The value was “about 215 seconds”.

Question: Which “time required for dissolution” value does the source give for `CCC(O)C(C)C1OC1CC(C)(O)/C=C/C=C(\C)C1OC(=O)CC(O)CCC(C)(O)C(OC(=O)N2CCN(C3CCCCCC3)CC2)/C=C/C1C` (stereo not drawn) [Amorphous powder, (8E,12E,14E)-7-{(4-cycloheptylpiperazin-1-yl)carbonyl}oxy-3,6,16,21-tetrahydroxy-6,10,12,16,20-pentamethyl-18,19-epoxytricosa-8,12,14-trien-11-olide] here?
Answer: The value was “about 10 seconds”.

Question: For `CCC(O)C(C)C1OC1CC(C)(O)/C=C/C=C(\C)C1OC(=O)CC(O)CCC(C)(O)C(OC(=O)N2CCN(C3CCCCCC3)CC2)/C=C/C1C` (stereo not drawn) [Crystals, (8E,12E,14E)-7-{(4-cycloheptylpiperazin-1-yl)carbonyl}oxy-3,6,16,21-tetrahydroxy-6,10,12,16,20-pentamethyl-18,19-epoxytricosa-8,12,14-trien-11-olide], which “time required for dissolution” value is on record?
Answer: Its value is “about 32 seconds”.
